Source: patent US20230382926A1, “COMPOUNDS AND USES THEREOF” (The University of The West Indies, priority 2022, published 2023)

Columns and labels:
Assay in all cases: Rescue concentration, modified checkerboard MIC adjuvant assay
Assay type in all cases: cell-based
[1] = test system: Escherichia coli ATCC 35150; conditions: E. coli ATCC 35150
Protocol: (§1) Reference microorganisms as well as clinical strains used to evaluate the antimicrobial adjuvant properties of SP-6azaBIM 125 and SP-6azaBIM 136 are listed in Table 3. Clinical strains of bacteria were kindly provided by the Faculty of Medical Sciences, UWI, St. Augustine, Trinidad. All bacterial cultures were cryopreserved in 30% glycerol/Brain Heart Infusion (BHI) at −80° C. Cultures were revived on BHI agar (Oxoid Ltd, England) and maintained at 4° C. until needed.
(§2) Prior to each experiment, cultures were streaked onto clean BHI agar plates and incubated at 35° C. for 24 hours. Colonies of the respective cultures were selected and inoculated in phosphate buffer saline (pH 7.5) to a 0.5 McFarland turbidity standard (equivalent to 10^8 CFU mL^−1). For inhibitory studies the bacterial suspensions were diluted 1:100 in cation-adjusted Mueller Hinton Broth (ca-MHB) (Oxoid Ltd, England). Fastidious bacteria including Streptococcus pneumoniae, Haemophilus infuenzae and Clostridium difficile were maintained on BHI agar with 5% defibrinated sheep blood and diluted in ca-MHB with 5% defibrinated sheep blood.
(§3) Antibiotic powders used in this study were purchased from Sigma Aldrich Ltd. (WI, USA). Antibiotic stock solutions were made at 50 mg mL^−1 according to Andrews (2001) and working solutions were prepared 24 h before use and stored at 4° C.
(§4) HCl salts of the of the SP-azaBIM test compounds were prepared prior to testing and stored at 4° C. Working preparations of each compound were made to 1 mg/mL in sterile deionised water.
(§5) The antibiotic adjuvant activity of the SPazaBIMs were evaluated in combination with representative antibiotics (representing 13 antibiotic classes) against the 19 pathogens strains listed in Table 3. To assess the adjuvant properties of the SP-azaBIM molecules, a modified checkerboard minimum inhibitory concentration assay was used. A fixed concentration of the respective antibiotic (susceptible breakpoint concentration) was mixed with a twofold dilution series of the test SP-azaBIM (FIG. 1). This was to determine the concentration of SP-azaBIM needed potentiate the antibiotic at a clinically susceptible breakpoint concentration. Antibiotic susceptible breakpoint concentrations for the respective bacteria were determined using Clinical Laboratory Standards Institute (CLSI) criteria M100 ED31.
(§6) In this study, only those antibiotics to which the bacterial was classed as resistant were included in the adjuvant assays. In this assay we recorded the rescue concentration of the SP-BIM for a respective antibiotic. The rescue concentration was defined as the concentration of the adjuvant that reduces the minimum inhibitory concentration (MIC) of an antibiotic to the susceptibility breakpoint.
(§7) Immediately prior to testing, the respective antibiotic and SP-azaBIM was dissolved in sterile deionised water at 20× the required test concentration. Each microtiter well was then inoculated with 180 μl of bacterial inoculum of 10^6 CFU/ml in ca-MHB, and 10 μl each if the antibiotic and SP-azaBIM was added to the plates. These plates were then incubated at 35° C. for 24 h under aerobic conditions. A similar method was followed for the fastidious pathogens except that they were cultured in ca-MHB with 5% sheep blood and 5% CO2.
(§8) Bacterial growth was visually inspected after the incubation period and the rescue concentration of the test SP-azaBIM was determined as the lowest concentration of the compound needed to reduce bacterial growth by 99.99% at the susceptible breakpoint concentration of the antibiotic. For example, CLSI states that Pseudomonas aeruginosa is susceptible to the Imipenem if the MIC is ≤2 μg mL^−1. If the bacteria can tolerate this concentration in vitro, then the bacteria has an intermediate or absolute resistance toward that antibiotic. […]

[2] = test system: Streptococcus pneumoniae ATCC 49619; conditions: S. pneumoniae ATCC 49619
Protocol: as §1, §2, §3, §4, §5, §6, §7, §8

[3] = test system: Klebsiella pneumoniae ATCC BAA-2814; conditions: K. pneumoniae ATCC BAA-2814
Protocol: as §1, §2, §3, §4, §5, §6, §7, §8

[4] = test system: Pseudomonas aeruginosa MDR 5805; conditions: P. aeruginosa MDR 5805
Protocol: as §1, §2, §3, §4, §5, §6, §7, §8

[5] = test system: Staphylococcus aureus ATCC BAA-2312; conditions: S. aureus ATCC BAA-2312
Protocol: as §1, §2, §3, §4, §5, §6, §7, §8

[6] = test system: Acinetobacter baumannii clinical isolate 9978; conditions: A. baumannii clinical isolate 9978
Protocol: as §1, §2, §3, §4, §5, §6, §7, §8

[7] = test system: Enterobacter cloacae ATCC BAA-1143; conditions: E. cloacae ATCC BAA-1143
Protocol: as §1, §2, §3, §4, §5, §6, §7, §8

[8] = test system: Stenotrophomonas maltophilia MDR 7785; conditions: S. maltophilia MDR 7785
Protocol: as §1, §2, §3, §4, §5, §6, §7, §8

[9] = Amp at susceptible breakpoint 8 μg mL^−1
[10] = Dox at susceptible breakpoint 4 μg mL^−1
[11] = Gen at susceptible breakpoint 4 μg mL^−1
[12] = Imi at susceptible breakpoint 1 μg mL^−1
[13] = Amox at susceptible breakpoint 8 μg mL^−1
[14] = Azi at susceptible breakpoint 16 μg mL^−1
[15] = Ceph at susceptible breakpoint 8 μg mL^−1
[16] = Chl at susceptible breakpoint 8 μg mL^−1
[17] = Col at susceptible breakpoint 8 μg mL^−1
[18] = Tet at susceptible breakpoint 4 μg mL^−1
[19] = Col at susceptible breakpoint 2 μg mL^−1
[20] = Imi at susceptible breakpoint 2 μg mL^−1
[21] = Mero at susceptible breakpoint 2 μg mL^−1
[22] = Pol B at susceptible breakpoint 2 μg mL^−1
[23] = Cef at susceptible breakpoint 8 μg mL^−1

Question: How did the “Rescue concentration, Amp (8)” value [1, 9] turn out when `Oc1ccc(C(c2c[nH]c3ncccc23)c2c[nH]c3ncccc23)cc1` [SP-7azaBIM 135, 4-(bis(1H-pyrrolo[2,3-b]pyridin-3-yl)methyl)phenol] was run?
Answer: Its value is over 128 µg/mL.

Question: And the “Rescue concentration, Cip (0.25)” value ([1]; Cip at susceptible breakpoint 0.25 μg mL^−1)?
Answer: Its value is over 128 µg/mL.

Question: What about the “Rescue concentration, Dox (4)” value [1, 10] of the same compound?
Answer: Its value is over 128 µg/mL.

Question: And the “Rescue concentration, Gen (4)” value [1, 11]?
Answer: Its value is over 128 µg/mL.

Question: And the “Rescue concentration, Imi (1)” value [1, 12]?
Answer: The value was 64 µg/mL.

Question: And the “Rescue concentration, Amox (2)” value ([2]; Amox at susceptible breakpoint 2 μg mL^−1)?
Answer: The value was over 128 µg/mL.

Question: What about the “Rescue concentration, Ery (0.25)” value ([2]; Ery at susceptible breakpoint 0.25 μg mL^−1) of the same compound?
Answer: Its value is over 128 µg/mL.

Question: What about the “Rescue concentration, Imi (0.12)” value ([2]; Imi at susceptible breakpoint 0.12 μg mL^−1) of the same compound?
Answer: Its value is over 128 µg/mL.

Question: What about the “Rescue concentration, Amox (8)” value [3, 13] of the same compound?
Answer: The value was over 128 µg/mL.

Question: What about the “Rescue concentration, Amp (8)” value [3, 9] of the same compound?
Answer: The value was over 128 µg/mL.

Question: And the “Rescue concentration, Aze (4)” value ([3]; Aze at susceptible breakpoint 4 μg mL^−1)?
Answer: Its value is over 128 µg/mL.

Question: And the “Rescue concentration, Azi (16)” value [3, 14]?
Answer: The value was over 128 µg/mL.

Question: And the “Rescue concentration, Cef (16)” value ([3]; Cef at susceptible breakpoint 16 μg mL^−1)?
Answer: The value was over 128 µg/mL.

Question: And the “Rescue concentration, Ceph (8)” value [3, 15]?
Answer: Its value is over 128 µg/mL.

Question: What about the “Rescue concentration, Chl (8)” value [3, 16] of the same compound?
Answer: Its value is over 128 µg/mL.

Question: What about the “Rescue concentration, Col (8)” value [3, 17] of the same compound?
Answer: The value was over 128 µg/mL.

Question: What about the “Rescue concentration, Dox (4)” value [3, 10] of the same compound?
Answer: The value was over 128 µg/mL.

Question: What about the “Rescue concentration, Gen (4)” value [3, 11] of the same compound?
Answer: The value was over 128 µg/mL.

Question: And the “Rescue concentration, Imi (1)” value [3, 12]?
Answer: The value was over 128 µg/mL.

Question: And the “Rescue concentration, Tet (4)” value [3, 18]?
Answer: The value was over 128 µg/mL.

Question: And the “Rescue concentration, Amox (8)” value [4, 13]?
Answer: Its value is 64 µg/mL.

Question: And the “Rescue concentration, Col (2)” value [4, 19]?
Answer: The value was over 128 µg/mL.

Question: And the “Rescue concentration, Gen (4)” value [4, 11]?
Answer: Its value is over 128 µg/mL.

Question: And the “Rescue concentration, Imi (2)” value [4, 20]?
Answer: Its value is over 128 µg/mL.

Question: What about the “Rescue concentration, Mero (2)” value [4, 21] of the same compound?
Answer: Its value is over 128 µg/mL.

Question: What about the “Rescue concentration, Pol B (2)” value [4, 22] of the same compound?
Answer: The value was over 128 µg/mL.

Question: And the “Rescue concentration, Azi (2)” value ([5]; Azi at susceptible breakpoint 2 μg mL^−1)?
Answer: The value was over 128 µg/mL.

Question: And the “Rescue concentration, Gen (4)” value [5, 11]?
Answer: The value was over 128 µg/mL.

Question: What about the “Rescue concentration, Pen (0.12)” value ([5]; Pen at susceptible breakpoint 0.12 μg mL^−1) of the same compound?
Answer: Its value is over 128 µg/mL.

Question: And the “Rescue concentration, Tri (8)” value ([5]; Tri at susceptible breakpoint 8 μg mL^−1)?
Answer: The value was over 128 µg/mL.

Question: And the “Rescue concentration, Van (2)” value ([5]; Van at susceptible breakpoint 2 μg mL^−1)?
Answer: The value was over 128 µg/mL.

Question: What about the “Rescue concentration, Amox (8)” value [6, 13] of the same compound?
Answer: Its value is over 127 µg/mL.

Question: And the “Rescue concentration, Cef (8)” value [6, 23]?
Answer: The value was over 128 µg/mL.

Question: And the “Rescue concentration, Col (2)” value [6, 19]?
Answer: The value was over 128 µg/mL.

Question: What about the “Rescue concentration, Gen (4)” value [6, 11] of the same compound?
Answer: Its value is over 128 µg/mL.

Question: And the “Rescue concentration, Imi (2)” value [6, 20]?
Answer: Its value is over 128 µg/mL.

Question: And the “Rescue concentration, Mero (2)” value [6, 21]?
Answer: The value was over 128 µg/mL.

Question: And the “Rescue concentration, Pol B (2)” value [6, 22]?
Answer: The value was over 128 µg/mL.

Question: And the “Rescue concentration, Amp (8)” value [7, 9]?
Answer: The value was 64 µg/mL.

Question: What about the “Rescue concentration, Azi (16)” value [7, 14] of the same compound?
Answer: The value was over 128 µg/mL.

Question: And the “Rescue concentration, Ceph (8)” value [7, 15]?
Answer: Its value is over 128 µg/mL.

Question: What about the “Rescue concentration, Chl (8)” value [7, 16] of the same compound?
Answer: Its value is over 128 µg/mL.

Question: And the “Rescue concentration, Col (8)” value [7, 17]?
Answer: Its value is 64 µg/mL.

Question: And the “Rescue concentration, Dox (4)” value [7, 10]?
Answer: Its value is over 128 µg/mL.

Question: What about the “Rescue concentration, Gen (4)” value [7, 11] of the same compound?
Answer: The value was over 128 µg/mL.

Question: What about the “Rescue concentration, Imi (1)” value [7, 12] of the same compound?
Answer: Its value is 32 µg/mL.

Question: And the “Rescue concentration, Tet (4)” value [7, 18]?
Answer: The value was over 128 µg/mL.

Question: And the “Rescue concentration, Cef (8)” value [8, 23]?
Answer: The value was over 128 µg/mL.

Question: And the “Rescue concentration, Ceph (8)” value [8, 15]?
Answer: Its value is over 128 µg/mL.

Question: What about the “Rescue concentration, Chl (8)” value [8, 16] of the same compound?
Answer: The value was over 128 µg/mL.

Question: What about the “Rescue concentration, Cip (2)” value ([8]; Cip at susceptible breakpoint 2 μg mL^−1) of the same compound?
Answer: Its value is over 128 µg/mL.

Question: And the “Rescue concentration, Gen (4)” value [8, 11]?
Answer: The value was over 128 µg/mL.

Question: And the “Rescue concentration, Imi (2)” value [8, 20]?
Answer: The value was over 128 µg/mL.

Question: And the “Rescue concentration, Mero (2)” value [8, 21]?
Answer: The value was over 128 µg/mL.

Question: And the “Rescue concentration, Tri (2)” value ([8]; Tri at susceptible breakpoint 2 μg mL^−1)?
Answer: The value was over 128 µg/mL.
